Measured values published in patent publication US20140193910A1, “METHODS FOR PRODUCING PANCREATIC PRECURSOR CELLS AND USES THEREOF” (priority 2011, published 2014).

Key:
Type in all cases: cell-based
[1] = tested on: human pancreatic stem cells; assay: Cell clones from second digestion of pancreas tissue, DMEM-10% DFBS + GrNP supplementation; conditions: for #clones after 1 passage, Method 1 / #clones after 1 passage, Method 2: 1 mM supplement, second digestion; for Enhancement of clonal cell proliferation: Method 1 and Method 2
Procedure: (§1) More specifically, after mincing of intact pancreatic tissue (harvested by the National Disease Research Interchange from donors within 4 hours of death), the pancreatic tissue was digested with liberase H (Roche). Two successive digestions of 20 and 30 minutes were performed at 37° C. in serum-free Dulbecco's modified Eagle's medium (DMEM) containing 1 mg/mL LIBERASE H. The cells and cell clusters released after each of these digestions were cultured.
In one embodiment of the methods described herein, termed herein as “Method 1,” twice digested pancreas digestion products can be cultured in DMEM supplemented with 10% dialyzed fetal bovine serum (DFBS).
(§2) In another embodiment of the methods described herein, termed herein as “Method 2,” the same two successive digestion procedure can be used, but the final tissue fragments remaining after the second digestion can also be cultured independently. For this embodiment of the methods, CMRL-1066 medium can be used as a second base culture medium in parallel with DMEM for all cultured pancreatic cell and tissue preparations. In one such example of Method 2, CMRL-1066 medium was supplemented with 10% DFBS and 2 mM L-glutamine and subdivided for the same GrNP supplementations as indicated for DMEM-10% DFBS medium in Method 1.

[2] = tested on: human pancreatic stem cells; assay: Cell clones from twice-digested fragments of pancreas tissue, CMRL-1066-10% DFBS + GrNP supplementation; conditions: for Clone expansion rate (percent of isolated clones that could be expanded to full cultures) / #clones after 1 passage, Method 2: 1 mM supplement; for Clone expansion rate (percent of isolated clones that could be expanded to full cultures) / #clones after 1 passage, Method 2 / Increase in number of clones (primary cell colonies) over control: CMRL-1066-10% DFBS; for #clones after 1 passage, Method 2: twice-digested tissue fragments; for Increase in number of clones (primary cell colonies) over control: Method 2; for Increase in proportion of clones that could be further expanded to full cultures: CMRL-1066 medium, tissue fragments, versus control
Procedure: as §1, §2
Accordingly, in some embodiments of the methods described herein, the culture medium comprise Xn, Xs, or a combination thereof.

[3] = tested on: human pancreatic stem cells; assay: Population doubling analysis of pooled polyclonal strains (Method 2, CMRL-1066)
Procedure: Growth properties of human pancreatic stem cell strains. Four weeks after replating, clones were picked and expanded. Cells left after clonal isolations from the CMRL-1066 conditions were pooled and grown. They were trypsinized and counted on a regular basis, and population doublings were calculated accordingly. The number of clones detected for each condition is represented on the top two histograms. The bottom histogram represents the percentage of harvested clones that continued their expansion after isolation.
After isolating clonal cell colonies produced by the embodiment of the methods described herein termed Method 2 (Table 2) for expansion, the remaining unselected cell clones were pooled and expanded as well (i.e., polyclonal strains). Population doubling analyses were performed based on the passage of the expansion pool cultures.

## O=c1[nH]cnc2nc[nH]c12 [Hx, hypoxanthine]
[1]
  #clones after 1 passage, Method 1: 22
  #clones after 1 passage, Method 2: 13
  Enhancement of clonal cell proliferation: more effective in enhancing clonal cell proliferation than Xn

## O=c1[nH]c(=O)c2[nH]cnc2[nH]1 [Xn, xanthine]
[2]
  Clone expansion rate (percent of isolated clones that could be expanded to full cultures): 13%
  #clones after 1 passage, Method 2: 54
  Increase in number of clones (primary cell colonies) over control: approximately 50%
  Increase in proportion of clones that could be further expanded to full cultures: 3.4 fold
[3]; polyclonal strains
  Cell expansion corresponding to the population doublings: ~1e+06 fold
[3]; supplemented medium, expansion pool cultures
  Population doublings of polyclonal strains: 20 population doublings
[1]
  #clones after 1 passage, Method 1: 3
  #clones after 1 passage, Method 2: 5
  Enhancement of clonal cell proliferation: not statistically different than control

## O=c1[nH]c(=O)c2ncn([C@@H]3O[C@H](CO)[C@@H](O)[C@H]3O)c2[nH]1 [Xs, xanthosine]
[2]
  Clone expansion rate (percent of isolated clones that could be expanded to full cultures): 10%
  #clones after 1 passage, Method 2: 59
  Increase in number of clones (primary cell colonies) over control: approximately 50%
  Increase in proportion of clones that could be further expanded to full cultures: 2.6 fold
[1]
  #clones after 1 passage, Method 1: 13
  #clones after 1 passage, Method 2: 12
  Enhancement of clonal cell proliferation: more effective in enhancing clonal cell proliferation than Xn
